From patent EP4772530A1, “PEPTIDE TARGETING SOMATOSTATIN RECEPTOR, DRUG CONJUGATE AND USE THEREOF” (Mainline Biosciences (Shanghai) Co., Ltd., priority 2023, dated 2025)
“And” between values parts separate entries of the source, which are not always exact repeats. Identical values can stand only once. “Also recorded” adds a separate entry of the source.

Tests used:
[1] = test system: Human multiple myeloma MM.1S cells; assay: EX3.3 in vivo pharmacodynamics, MM.1S subcutaneous xenograft model; parameters: species or system CB17 SCID mice; settings: for Tumor Volume (Mean ± SEM): IV, Twice Weekly
Experimental: Human multiple myeloma MM.1S cells were suspended and cultured in vitro in 1640 medium containing 10% fetal bovine serum, 100 U/mL penicillin, and 100 µg/mL streptomycin in a 5% CO2 incubator at 37°C. The suspended cells were collected by centrifugation twice a week and adherent cells were digested with trypsin-EDTA to prepare a cell suspension for subculture. When the cell saturation was 80%-90% and the cell number reached the requirement, the cells were collected, counted, and inoculated.
CB17 SCID mice, female, 6-8 weeks old, weighing 18-22 g, provided by Zhejiang Vital River Laboratory Animal Technology Co., Ltd.
Each mouse was subcutaneously injected with 100 µL of PBS containing 5×10^6 MM.1S cells + 100 µL of Matrigel (final volume: 200 µL) at the axilla of the right forelimb. At 20 days after injection, when the average tumor volume reached 109 mm^3, mice were grouped for dosing (vehicle control,Ixazomib Citrate, and Example 1 treatment groups, with 6 animals per group). The Ixazomib Citrate group was orally administered by gavage (4 mg/kg) twice a week; the vehicle control group (5%DMSO + 95% normal saline) and the Example 1 treatment group (1.75 mg/kg) were slowly intravenously injected for about 30 seconds each time, twice a week.
The experimental indicators were used to investigate whether tumor growth was inhibited, delayed, or cured. The tumor diameter was measured twice a week using a vernier caliper. The tumor volume was calculated as follows: V = 0.5a×b^2, where a and b were the long and short diameters of the tumor, respectively.
The anti-tumor efficacy of the drug was evaluated based on TGI (%) or relative tumor proliferation rate T/C (%). TGI (%) was the tumor growth inhibition rate. TGI (%) was calculated as follows: TGI (%)=[(1 -(mean tumor volume at the end of dosing in a certain treatment group - mean tumor volume at the start of dosing in the treatment group))/ (mean tumor volume at the end of dosing in the vehicle control group - mean tumor volume at the start of dosing in the vehicle control group)]× 100%.
T/C (%) was calculated as follows:T/C (%)= TRTV/ CRTV× 100 %. Based on the results of tumor measurement, the relative tumor volume (RTV) was calculated as follows: RTV = Vt/V0, where V0 was the mean tumor volume measured at the time of grouping (i.e. d0), and Vt was the mean tumor volume at a certain measurement. Data on the same day were taken for TRTV and CRTV.
Tumor weights were measured at the end of the experiment and T/Cweight was calculated, where Tweight and Cweight were tumor weights in the treatment and vehicle control groups, respectively.
Statistical analysis, including the mean and standard error (SEM) of tumor volume at each time point in each group (see Table 5-1 in Section 5.2 for specific data), was performed to evaluate differences between groups based on data from the treatment group on Day 18 post-dose at the end of the experiment. A t-test was used for comparison between two groups, and one-way ANOVA was used for comparison among three or more groups. If there was a significant difference in F value, the Games-Howell method was used for testing; if there was no significant difference in F value, the Dunnet (2-sided) method was used for analysis. All data were analyzed using SPSS 17.0.

HL-60 = assay: Cell killing in HL-60 by CCK-8; type: cell-based; settings: HL-60, 48 h
Experimental: • a) Cell line: HL-60 • b) Procedure • (1) Normally cultured HL-60 cells in the logarithmic growth phase were centrifuged at 800 rpm for 5 min to discard the supernatant. Approximately 3 mL of normal medium was added to resuspend the cell pellet by gently pipetting up and down. The cells were then counted using a cell counter and inoculated onto a 96-well plate. • (2) Sample solutions with different concentration gradients were prepared. Approximately 10 µL of each solution was added to the 96-well plate, with 3 to 6 replicate wells for each concentration, and incubated in a 5% CO2 incubator at 37°C for 48 h. • (3) CCK-8 was equilibrated to room temperature before use, and 10 µL of CCK-8 solution was added to each well. • (4) The plate was incubated in the incubator for 0.5-4 h in the dark, with the incubation time depending on experimental conditions such as cell type and density. • (5) The absorbance was measured at 450 nm using a microplate reader. • c) Data analysis Cell viability = [(As−Ab)/(Ac−Ab)] × 100% [formula] Inhibition% = [(Ac−As)/(Ac−Ab)] × 100% [formula] • As: absorbance of sample well (containing cells + medium + CCK-8 solution + drug solution); • Ac: absorbance of control well (containing cells + medium + CCK-8 solution); • Ab: absorbance of blank well (containing medium + CCK-8 solution); • The results were processed and analyzed using Excel and Graphpad Prism to obtain the IC50. Table 4: Test Results of Cell Killing in HL-60 for 48 h

NCI-H69 = assay: Cell killing in NCI-H69 by CGT (CellTiter-Glo); type: cell-based; settings: NCI-H69, 96 h; Inh% relative to DMSO control, 4-parameter fit
Experimental: Approximately 5 µL of the PDC was added to the corresponding wells of the plate, and compared with DMSO (control, without the PDC of the present application), PTX, MMAE, and Dxd wells. The final concentration of DMSO in each well was 0.2%; • (5) The cells were incubated in a 5% CO2 incubator at 37°C for 96 h; • (6) The cell culture plate was equilibrated to room temperature, and 50 µL of CellTiter-Glo® Reagent was added to each well; • (7) The plate was placed on a shaker for 2 min to ensure complete cell lysis; • (8) After mixing, the plate was placed at room temperature to react for 10 min. The fluorescence value (in RLU) was read when the signal became stable. • c) Data analysis • (1) The inhibition (Inh %) relative to the DMSO control was calculated as follows: Inhibition (Inh%)= 100 -(RLU of compound - RLU of DMSO control)/ (RLU of DMSO control - RLU of blank)*100% • (2) The data were analyzed using Graphpad 5.0 software. A 4-parameter equation was fitted to generate a concentration-response curve to obtain the IC50. Table 3: Test Results of Cell Killing in NCI-H69

[2] = 18 days after the start of dosing, Example 1 1.75 mg/kg IV twice a week

SMILES: CC[C@H](C)[C@@H]([C@@H](CC(=O)N1CCC[C@H]1[C@H](OC)[C@@H](C)C(=O)N[C@H](C)[C@@H](O)c1ccccc1)OC)N(C)C(=O)[C@@H](NC(=O)[C@H](C(C)C)N(C)C(=O)OCc1ccc(NC(=O)[C@H](CCCNC(N)=O)NC(=O)[C@@H](NC(=O)CCCCCN2C(=O)CC(SC[C@H](NC(C)=O)C(=O)NCCOCCOCC(=O)N[C@@H](CCCNC(=N)N)C(=O)N[C@@H](CCCNC(=N)N)C(=O)N[C@@H](CC(C)C)C(=O)N[C@@H](Cc3ccccc3)C(=O)N[C@H]3CSSC[C@@H](C(=O)N[C@H](C(=O)N[C@@H](Cc4c[nH]c5ccccc45)C(=O)N[C@@H](CCCNC(=N)N)C(=O)N[C@@H](CC(=O)O)C(N)=O)[C@@H](C)O)NC(=O)[C@H]([C@@H](C)O)NC(=O)[C@H](CCCCN)NC(=O)[C@@H](Cc4c[nH]c5ccccc45)NC(=O)[C@H](Cc4ccc(O)cc4)NC3=O)C2=O)C(C)C)cc1)C(C)C (stereo partly drawn) [Example 1, Cys(MC-Val-Cit-PABC-MMAE)-AEEA-Arg-Arg-Leu-Phe-[Cys-Tyr-D-Trp-Lys-Thr-Cys]-Thr-Trp-Arg-Asp-NH2]
- T/C [1, 2]: 0.94%
- TGI [1, 2]: 103.59%
- tumor inhibition compared to the vehicle control group ([1]; 18 days after the start of dosing, Example 1 1.75 mg/kg, p= 0.010, 1.75 mg/kg): significant tumor inhibition; also recorded: significant anti-tumor effect
- Tumor Volume (Mean ± SEM) ([1]; Day 4, Example 1 1.75 mg/kg): 144 ± 14 mm3
- Tumor Volume (Mean ± SEM) ([1]; Day 7, Example 1 1.75 mg/kg): 124 ± 13 mm3
- Tumor Volume (Mean ± SEM) ([1]; Day 11, Example 1 1.75 mg/kg): 87 ± 11 mm3
- Tumor Volume (Mean ± SEM) ([1]; Day 14, Example 1 1.75 mg/kg): 50 ± 8 mm3
- Tumor Volume (Mean ± SEM) ([1]; Day 18, Example 1 1.75 mg/kg, 1.75 mg/kg): 23 mm3 and 23 ± 5 mm3
- Tumor Volume (Mean ± SEM) ([1]; Day 21, Example 1 1.75 mg/kg): 12 ± 5 mm3
- Tumor Volume (Mean ± SEM) ([1]; Day 25, Example 1 1.75 mg/kg): 0 ± 0 mm3
- Tumor Volume (Mean ± SEM) ([1]; Day 28, Example 1 1.75 mg/kg): 0 ± 0 mm3
- complete response rate ([1]; Example 1 1.75 mg/kg): 100%
- complete response ([1]; Example 1 1.75 mg/kg, 6 animals in the group): all achieved a complete response
- Bottom (Inhibition at Lowest Point) (HL-60): 1.71
- Top (Inhibition at Highest Point) (HL-60): 86.42
- Bottom (Inhibition at Lowest Point) (NCI-H69): 2.17
- Top (Inhibition at Highest Point) (NCI-H69): 79.37
